Laboratory results reported in patent publication US12419862B2, “Use of a cathepsin s inhibitor against the formation of anti-drug antibodies” (Hoffmann-La Roche Inc., priority 2018, dated 2025).

How the values were obtained:
[1] = system: adalimumab-specific IgG response; test: ADA against adalimumab in hIgG1 Tg mice over time, ELISA (Example 3, 63 days); format: in vivo, C57BL/6-Tg (hIgG1,k,l) mice; conditions: 40 mg/kg/day via food admix from one day before first immunization until day 28, blood samples to day 56, vs vehicle
Procedure: 15-week-old female mice C57BL/6-Tg (hIgG1,k,l) were purchased from Taconic (Denmark) and housed at the animal facilities in room with air-conditioned under a 12 hours light/dark cycle in macrolon boxes with enriched environment and free access to water and food. 7×10 μg of Humira (Adalimumab, Abbvie Germany GmbH) were injected at day 0, 4, 7, 11, 14, 18 and 21 subcutaneously in the right flank or the left flank alternatively. The dosage of (2S,4R)-4-[4-(1-methyl-1H-pyrazol-4-yl)-2-trifluoromethyl-benzenesulfonyl]-1-(1-trifluoromethyl-cyclopropanecarbonyl)-pyrrolidine-2-carboxylic acid (1-cyano-cyclopropyl)-amide consumption was 40 mg/kg/day. (2S,4R)-4-[4-(1-methyl-1H-pyrazol-4-yl)-2-trifluoromethyl-benzenesulfonyl]-1-(1-trifluoromethyl-cyclopropanecarbonyl)-pyrrolidine-2-carboxylic acid (1-cyano-cyclopropyl)-amide was given via food admix (Ssniff Spezialdiäten, Germany) daily from one day before the first Humira immunization until day 28. […]
(§1) Nunc Maxisorp flat-bottom 96 well ELISA plates were coated with 100 μl per well of Humira or CEA-PGLALA respectively at 5 μg/mL in NaHCO3100 mM buffer overnight at +4° C. […] 100 μl of substrate P-nitrophenyl phosphate ready to use (Life Technologies, Cat no 002212) were added per well and after 10 min incubation at room temperature, the OD at 405 nm was read as an end-point measurement with a Versamax ELISA reader.

[2] = system: CEA-specific IgG response; test: ADA against CEA-IL2v in wild-type mice over time, ELISA (Example 4, 63 days); format: in vivo, C57BL/6 wild type mice; conditions: 40 mg/kg/day via food admix, primary and memory response, samples to day 63, vs vehicle
Procedure: (§2) 15-week-old mice C57BL/6-Tg (hIgG1,k,l) and C57BL/6 wild type mixed gender were purchased from Taconic (Denmark) and housed at the animal facilities in room with air-conditioned under a 12 hours light/dark cycle in macrolon boxes with enriched environment and free access to water and food. 7×10 μg of CEA-IL2v (Batch no GLI0144-01) were injected at day 0, 4, 7, 11, 14, 18 and 21 for the primary response, and at day 49, 53, 56 and 60 for the memory response. The CEA-112v injections were done subcutaneously in the right flank or the left flank alternatively. The dosage of (2S,4R)-4-[4-(1-methyl-1H-pyrazol-4-yl)-2-trifluoromethyl-benzenesulfonyl]-1-(1-trifluoromethyl-cyclopropanecarbonyl)-pyrrolidine-2-carboxylic acid (1-cyano-cyclopropyl)-amide consumption was 40 mg/kg/day. […]
as §1

[3] = system: TCRβ+CD8+ T cells and NK1.1+ NKp46+ NK cells; test: PD effect of CEA-IL2v in blood, flow cytometry of CD8 T cells and NK cells (Example 5); format: in vivo; conditions: mice of Example 4; cathepsin S inhibitor 40 mg/kg/day vs vehicle
Procedure: as §2
From Example 4, 50 μl of lithium heparin whole blood were transferred into a 5 ml polystyrene round-bottom tubes (BD Falcon, Cat. no 352058) and 2 ml of freshly prepared 1× Pharm Lyse™ lysing buffer (BD Bioscience, Cat. no 555899) with UltraPur™ distilled water (Invitrogen, Cat. no 10977-035) were added. […] Data were acquired with the BD FACSDiva software v8.0 on BD LSRFortessa™ cytometer and analyzed with FlowJo™ V10.

With `Cn1cc(-c2ccc(S(=O)(=O)[C@@H]3C[C@@H](C(=O)NC4(C#N)CC4)N(C(=O)C4(C(F)(F)F)CC4)C3)c(C(F)(F)F)c2)cn1` [cathepsin S inhibitor, (2S,4R)-4-[4-(1-methyl-1H-pyrazol-4-yl)-2-trifluoromethyl-benzenesulfonyl]-1-(1-trifluoromethyl-cyclopropanecarbonyl)-pyrrolidine-2-carboxylic acid (1-cyano-cyclopropyl)-amide] as the compound, how does the “ADA to adalimumab (adalimumab-specific IgG) over time” value [1] read?
Its value is “reduces ADA to adalimumab”.

And the “ADA to CEA-IL2v (CEA-specific IgG) over time” value [2]?
Its value is “reduces its levels in wild-type mice”.

And the “Effect on CEA-IL2v pharmacology (percentages of CD8 T cells and NK cells in blood)” value [3]?
Its value is “CEA-112v pharmacology is preserved”.
